Data reported in patent US11684598B2, “Use of cannabinoids in the treatment of epilepsy” (priority 2015, dated 2023).

Tests used:
[1] = tested on: D. discoideum development; assay: D. discoideum development assay; type: cell-based, Dictyostelium discoideum; settings: 20 μM, 24 h on nitrocellulose filter
Procedure: Wild type (A×2) D. discoideum cells were grown in HL5 shaking culture for two days prior to development assay. Cells were washed in phosphate buffer (KK2; 20 mM Potassium phosphate buffer, pH 6.1), and 1×10^7 cells were spread onto nitrocellulose filters (Millipore, Cork). Absorbent pads (Millipore, Cork), divided into quarters, were placed in 2 ml culture dishes and soaked with 0.5 ml KK2 containing the cannabinoids at 20 μM. 1 mM Valproic acid was used as a positive control while KK2 containing 1% DMSO was used as a solvent only control. Nitrocellulose filters containing cells were quartered and place upon absorbent pads and maintained in a humid environment at 22° C. for 24 h. Fruiting body morphology was recorded using a dissection microscope and camera.

seizures = settings: 200 mg/day pure CBD, twelve institutionalized adult patients, open label; cited from earlier work
[2] = tested on: D. discoideum cell growth; assay: D. discoideum growth assay; type: cell-based, Dictyostelium discoideum
Procedure: Wild type (A×2) D. discoideum cells were grown in shaking culture (in HL5 medium) for two days prior to growth assays. Cells (9900 in 495 μl of media) were added to each well of a 24 well plate and 5 μl of cannabinoid in DMSO (or DMSO only) was added to each well to achieve each described concentration (1% final DMSO concentration), and cells were maintained at 22° C. Cells were counted at 72 hours, and then every 24 hours. Quadruplicate repeats were used for each concentration.

C=C(C)[C@@H]1CCC(C)=C[C@H]1c1c(O)cc(CCCCC)cc1O [CBD, Cannabidiol]
effect on development (fruiting body morphology) [1]: able to aggregate and develop to form mature fruiting bodies
control of seizures (seizures): ineffective in controlling seizures
IC50 ([2]; Dictyostelium discoideum, secondary plot of cell density at 144 hours, read-out: growth inhibitory constant (IC50)): 1630 nM
concentration blocking growth ([2]; growth over one week): 20 µM
concentration significantly inhibiting cell growth (P<0.05) ([2]; growth over one week): 0.5 µM
